One data set concerns KO-52 cells. The data set is described as follows: Proliferation assay (spheroid growth, 8 days), KO-52 control cell line. The data set is classed as cell-based, human. Conditions: Homo sapiens, […], read-out: spheroid assay_OneTime KO-52 IC50. In short, it runs like this: (§1)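 Spheroid size on day 8, taken as live-cell imaging confluence, served as readout after 8-day compound exposure (0.3% DMSO, 37 °C, 5% CO2) in round-bottom low-attachment wells. Seeding was 200 cells for MOLM14 and OCI-AML3, 300 for KO-52. IC50 came from % effect versus DMSO and reference baseline, fitted with variable slope.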

A short description of data set [1]: Mouse PK (in vivo T1/2 and oral bioavailability). Conditions: fasted male CD-1 mice, formulating agent HP-β-CD; for half-life: single IV 0.5 or 1.0 mg/kg; for bioavailability: single PO 5 mg/kg. As for the experimental part: 3) Mouse PK (In Vivo T1/2 and Oral Bioavailability)
In vivo pharmacokinetics (PK) were assessed in fasted male CD-1 mice (age 6-8 weeks) following a single intravenous (IV, 0.5 or 1.0 mg/kg administered at 2.5 ml/kg) or oral (PO, 5 mg/kg administered at 10 ml solution/kg) dose of test article formulated in a 20% (w:vol) HP-β-CD solution or in Pyrogen free water.
Plasma and/or whole blood samples were collected from the dorsal metatarsal vein at desired timepoints via serial capillary microsampling (approx. 0.03 mL) using EDTA as an anticoagulant. Concentrations of compound in the plasma and blood samples were analyzed using a qualified LC-MS/MS method. In silico analysis of main pharmacokinetic parameters was performed using WinNonlin (Phoenix™, version 6.1) or similar software. (Results see Table 4)

In the next data set the target is hERG potassium channel (Homo sapiens (Human), UniProt Q12809). The data set is described as follows: Effect on membrane potassium current IKr in hERG transfected CHO cells, Protocol 1 (QPatch). The data set is classed as cell-based. An outline of the steps:
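Whole-cell automated patch clamp on CHO cells stably expressing hERG, held at −80 mV; the value is the tail current at −40 mV after a 2 s step to +60 mV, at pH 7.4 bath and pH 7.2 pipette. After 0.3% DMSO control, compound was applied at 3×10^−7 M, 3×10^−6 M, 10^−5 M and 3×10^−5 M, 5 min each. IC50 comes from a non-linear least-squares fit of block versus vehicle.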

A further data set deals with OCI-AML3 cells. The data set can be described thus: Proliferation assay (spheroid growth, 8 days), OCI-AML3. It is filed as cell-based, human. Conditions: Homo sapiens, OCI-AML-3, […], OCI-AML3, 8 days. In short, it runs like this:
as §1

The subject of a further data set is MOLM14 cells. The data set is described as follows: Proliferation assay (spheroid growth, 8 days), MOLM14.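 Also: spheroid size read as confluence by live-cell imaging, compounds added at a range of concentrations with 0.3% DMSO, DMSO-treated wells = 0%, highest reference dose = low control.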 Conditions: Homo sapiens, MOLM-14, […], MOLM14, 8 days; read-out: spheroid assay_OneTime MOLM14 IC50. The data set is classed as cell-based, human.
Data set [2] concerns the target menin/MLL (terbium chelate-labeled menin, FITC-MBM1 peptide) (Homo sapiens (Human), UniProt O00255). The data set can be described thus: Menin/MLL homogenous time-resolved fluorescence (HTRF) assay.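 Also: IC50 from percent inhibition of HTRF signal, normalized between wells without competitor and wells with a saturating competitor that displaces FITC-MBM1 from His-tagged menin.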 It is filed as binding. To be noted: HTRF-30 min incubation IC50, 30 min incubation.
The next data set deals with MEIS1 mRNA. The data set can be described thus: MEIS1 mRNA expression assay (Quantigene Singleplex) in MOLM14 cells.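 Also: MEIS1 transcript levels read by probe hybridization and normalized to RPL28 mRNA, with IC50 fitted to fold changes across a rising compound concentration series.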 It is filed as cell-based, human. To be noted: Homo sapiens, MOLM-14, 48 h, 48 hours incubation.

Counter-ions that a name gives are not always drawn.

Sequence of menin/MLL (terbium chelate-labeled menin, FITC-MBM1 peptide) (O00255 other isoform, or with tags, fused parts or gaps): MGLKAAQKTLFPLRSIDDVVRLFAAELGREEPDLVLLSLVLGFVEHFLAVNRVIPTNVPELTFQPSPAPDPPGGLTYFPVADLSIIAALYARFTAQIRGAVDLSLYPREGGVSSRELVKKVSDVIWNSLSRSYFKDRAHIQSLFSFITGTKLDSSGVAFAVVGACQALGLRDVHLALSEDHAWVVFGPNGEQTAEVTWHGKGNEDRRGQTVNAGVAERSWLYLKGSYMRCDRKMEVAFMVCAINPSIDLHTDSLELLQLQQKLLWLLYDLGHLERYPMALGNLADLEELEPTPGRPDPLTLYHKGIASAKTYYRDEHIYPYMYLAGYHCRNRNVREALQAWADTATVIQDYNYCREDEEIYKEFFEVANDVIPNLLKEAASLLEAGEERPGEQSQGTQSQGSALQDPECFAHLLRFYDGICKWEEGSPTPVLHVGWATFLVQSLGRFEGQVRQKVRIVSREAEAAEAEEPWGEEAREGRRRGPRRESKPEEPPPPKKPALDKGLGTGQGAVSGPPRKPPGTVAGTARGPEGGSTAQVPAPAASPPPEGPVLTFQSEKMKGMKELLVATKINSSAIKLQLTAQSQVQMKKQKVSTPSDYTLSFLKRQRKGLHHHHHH
Sequence of hERG potassium channel (Q12809 whole entry): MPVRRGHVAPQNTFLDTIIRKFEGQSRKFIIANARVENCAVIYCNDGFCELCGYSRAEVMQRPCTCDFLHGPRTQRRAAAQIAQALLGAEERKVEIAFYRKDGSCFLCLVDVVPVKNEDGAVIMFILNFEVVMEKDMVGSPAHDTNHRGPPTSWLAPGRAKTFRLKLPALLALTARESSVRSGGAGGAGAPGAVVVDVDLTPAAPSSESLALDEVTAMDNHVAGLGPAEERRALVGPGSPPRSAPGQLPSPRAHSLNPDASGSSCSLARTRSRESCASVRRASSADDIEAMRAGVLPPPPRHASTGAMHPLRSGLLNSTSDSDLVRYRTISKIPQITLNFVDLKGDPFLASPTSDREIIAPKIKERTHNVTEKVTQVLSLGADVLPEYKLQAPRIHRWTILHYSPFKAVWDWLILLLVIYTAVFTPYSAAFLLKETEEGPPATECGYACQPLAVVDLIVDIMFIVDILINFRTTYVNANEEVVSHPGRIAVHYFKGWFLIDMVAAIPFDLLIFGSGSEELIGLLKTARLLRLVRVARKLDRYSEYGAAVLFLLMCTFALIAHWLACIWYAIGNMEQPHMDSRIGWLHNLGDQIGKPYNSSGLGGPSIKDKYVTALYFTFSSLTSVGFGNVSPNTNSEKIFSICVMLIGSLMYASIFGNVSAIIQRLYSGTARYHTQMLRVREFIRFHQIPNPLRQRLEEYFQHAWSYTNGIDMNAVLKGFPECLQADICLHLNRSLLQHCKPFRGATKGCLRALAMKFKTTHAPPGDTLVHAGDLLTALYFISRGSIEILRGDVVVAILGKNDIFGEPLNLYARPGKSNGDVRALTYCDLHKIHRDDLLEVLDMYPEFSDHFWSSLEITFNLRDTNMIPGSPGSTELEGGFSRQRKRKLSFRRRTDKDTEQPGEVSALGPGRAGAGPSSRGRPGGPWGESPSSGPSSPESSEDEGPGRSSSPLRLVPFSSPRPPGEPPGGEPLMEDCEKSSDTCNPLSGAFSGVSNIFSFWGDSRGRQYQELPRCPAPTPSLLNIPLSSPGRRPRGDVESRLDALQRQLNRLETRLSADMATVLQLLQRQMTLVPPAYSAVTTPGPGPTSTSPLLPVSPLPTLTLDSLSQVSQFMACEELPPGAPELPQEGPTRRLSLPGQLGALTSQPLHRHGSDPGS

For the compound `CCN(C(=O)c1cc(F)ccc1Oc1nncnc1N1CCC2(C1)CN([C@H](CCCN)C(C)C)C2)C(C)C` [Compound 1, (R)-2-((5-(2-(6-amino-2-methylhexan-3-yl)-2,6-diazaspiro[3.4]octan-6-yl)-1,2,4-triazin-6-yl)oxy)-N-ethyl-5-fluoro-N-isopropylbenzamide formate], the IC50 in the data set with KO-52 cells was over 15000 nM; on hERG potassium channel it was over 30200 nM; with OCI-AML3 cells, 170 nM; in the data set with MOLM14 cells, 230 nM; in data set [2], 0.13 nM; in the data set with MEIS1 mRNA, 75 nM. In addition, in data set [1], the half-life is 15 h. In data set [1], this compound showed a bioavailability of under 1%.
For `CCN(C(=O)c1cc(F)ccc1Oc1nncnc1N1CCC2(C1)CN([C@H](CCCN(C)CCNC(C)=O)C(C)C)C2)C(C)C.O=C(O)/C=C/C(=O)O` [Compound 245, (R)-2-((5-(2-(6-((2-acetamidoethyl)(methyl)amino)-2-methylhexan-3-yl)-2,6-diazaspiro[3.4]octan-6-yl)-1,2,4-triazin-6-yl)oxy)-N-ethyl-5-fluoro-N-isopropylbenzamide fumarate], the 50% inhibitory concentration (IC50) in the data set on KO-52 cells was over 15000 nM; with OCI-AML3 cells, 430 nM; in the data set on MOLM14 cells it was 73 nM; in data set [2], 0.26 nM; in the data set with MEIS1 mRNA, 140 nM. This compound also showed a half-life in data set [1] of 7 h. In addition, the bioavailability in data set [1] is under 1%.
For the compound `CCN(C(=O)c1cc(F)ccc1Oc1nncnc1N1CCC2(C1)CN([C@H](CCCN(C)CCC(=O)N(C)C)C(C)C)C2)C(C)C` [Compound 246, (R)-2-((5-(2-(6-((3-(dimethylamino)-3-oxopropyl)(methyl)amino)-2-methylhexan-3-yl)-2,6-diazaspiro[3.4]octan-6-yl)-1,2,4-triazin-6-yl)oxy)-N-ethyl-5-fluoro-N-isopropylbenzamide formate], the IC50 was over 15000 nM in the data set with KO-52 cells; 380 nM in the data set on OCI-AML3 cells; 60 nM in the data set with MOLM14 cells; 0.063 nM in data set [2]; 180 nM in the data set with MEIS1 mRNA.
The matching figures for `CCN(C(=O)c1cc(F)ccc1Oc1nncnc1N1CCC2(C1)CN([C@H](CCCN[C@H](C)COC)C(C)C)C2)C(C)C.O=C(O)/C=C/C(=O)O` [Compound 112, N-ethyl-5-fluoro-N-isopropyl-2-(5(2-((R)-6-(((R)-1-methoxypropan-2-yl)amino)-2-methylhexan-3-yl)-2,6-diazaspiro[3.4]octan-6-yl)-1,2,4-triazin-6-yl)oxy)benzamide fumarate]: over 15000 nM, 81 nM, 9.8 nM, 0.049 nM and 9 nM.
The matching figures for `COCCNCCC[C@H](C(C)C)N1CC2(CCN(c3ncnnc3Oc3ccc(F)cc3C(=O)N(C(C)C)C(C)C)C2)C1` (single isomer, unassigned) [Compound 99, (*R)-5-fluoro-N,N-isopropyl-2-((5-(2-(6-((2-methoxyethyl)amino)-2-methylhexan-3-yl)-2,6-diazaspiro[3.4]octan-6-yl)-1,2,4-triazin-6-yl)oxy)benzamide oxalate]: 11500 nM, 82 nM, 8.5 nM, 0.2 nM and 26 nM.
Turning to `CCN(C(=O)c1cc(F)ccc1Oc1nncnc1N1CCC2(C1)CN([C@H](CCCNCC(OC)OC)C(C)C)C2)C(C)C.O=C(O)/C=C/C(=O)O` [Compound 104, (R)-2-((5-(2-(6-((2,2-dimethoxyethyl)amino)-2-methylhexan-3-yl)-2,6-diazaspiro[3.4]octan-6-yl)-1,2,4-triazin-6-yl)oxy)-N-ethyl-5-fluoro-N-isopropylbenzamide fumarate], the half-inhibitory concentration (IC50) with KO-52 cells stood at 10700 nM; with OCI-AML3 cells it was 150 nM; in the data set with MOLM14 cells, 6.7 nM; in data set [2], 0.074 nM; in the data set on MEIS1 mRNA it was 15 nM. Further, the half-life in data set [1] was 8.7 h. For the same compound, the bioavailability in data set [1] is 6.1%.
As for `CC(C)[C@@H](CCC(C)(C)N)N1CC2(CCN(c3ncnnc3Oc3ccc(F)cc3-c3cncnc3C3CC3)C2)C1` (single isomer, unassigned) [Compound 37, (*R)-5-(6-(6-(2-(4-cyclopropylpyrimidin-5-yl)-4-fluorophenoxy)-1,2,4-triazin-5-yl)-2,6-diazaspiro[3.4]octan-2-yl)-2,6-dimethylheptan-2-amine], the half-inhibitory concentration (IC50) in the data set with KO-52 cells was over 15000 nM; against hERG potassium channel, over 30200 nM; with OCI-AML3 cells, 430 nM; with MOLM14 cells, 40 nM; in data set [2], 0.12 nM; in the data set on MEIS1 mRNA it was 39 nM. The half-life in data set [1] was over 12 h. In addition, the bioavailability in data set [1] is under 1%.
With `CCN(C(=O)c1cc(F)ccc1Oc1nncnc1N1CCC2(C1)CN([C@H](CCCNCCC(F)F)C(C)C)C2)C(C)C.O=C(O)/C=C/C(=O)O` [Compound 114, (R)-2-(5-(2-(6-((3,3-difluoropropyl)amino)-2-methylhexan-3-yl)-2,6-diazaspiro[3.4]octan-6-yl)-1,2,4-triazin-6-yl)oxy)-N-ethyl-5-fluoro-N-isopropylbenzamide fumarate], the 50% inhibitory concentration (IC50) with KO-52 cells was found to be 1690 nM; in the data set on OCI-AML3 cells, 42 nM; in the data set on MOLM14 cells, 14 nM; in data set [2], 0.05 nM; in the data set on MEIS1 mRNA, 22 nM.

Values taken from US12473295B2, “Substituted straight chain spiro derivatives” (Janssen Pharmaceutica NV, priority 2019, dated 2025).
